Four molecules from patent publication EP4389746A2, “P2X3 RECEPTOR ANTAGONISTS” (Recordati Industria Chimica E Farmaceutica SPA, priority 2022, dated 2024) can be followed below.

In one series the test system is C57BL/6J mice. Description: Scratching model: inhibition of ATP induced pruritus in mouse. It counts as in vivo. As to conditions: dose inhibiting the 35% of number of bouts, intraperitoneally 30 min before α,β-meATP 200 µg/50 µL intradermal, bouts counted for 30 minutes. As to the method:
(§1) C57BL/6J mice, Hartley Guinea pigs and Sprague-Dawley Rats from Charles River Italy were used in the experiments. Animals were housed with free access to food and water and maintained on a forced 12 hr light-dark cycle at 22-24°C for at least one week before the experiments were carried out. The animals were handled according to internationally accepted principles for care of laboratory animals (Directive 2010/63/EU of the European Parliament and of the Council of 22 September 2010).
"Scratchng model" - Inhibition of ATP induced pruritus in mouse
Mice were shaved at the rostral back the day before injection. The day of the experiment, an intradermal injection of the irritant agent α,β-meATP 200 µg/50 µL (Sigma, Italy) into the skin was performed. The hind limb scratching behavior directed toward the injection site, was recorded. One bout was defined as the lifting of the hindlimb toward the injection site and then placing the limb back on the floor. The number of bouts were counted for a period of 30 minutes. The Example 22 compound investigated was injected intraperitoneally 30 min before the administration of the irritant agent. (Fig. 2)
In the scratching model the results are presented as mean ± SEM of the values. Statistical analysis was performed using one-way ANOVA and Dunnet's test for multiple comparisons. The ED35 of the tested compounds was determined by linear regression analysis of bouts (Graphpad v5).

For a further series, the target named is T1, human P2X2/3 receptor (Homo sapiens, UniProt P56373+Q9UBL9).
T1 construct: expressed in transfected cells; host or cells: CHO-K1
T1 sequence (P56373 1-397): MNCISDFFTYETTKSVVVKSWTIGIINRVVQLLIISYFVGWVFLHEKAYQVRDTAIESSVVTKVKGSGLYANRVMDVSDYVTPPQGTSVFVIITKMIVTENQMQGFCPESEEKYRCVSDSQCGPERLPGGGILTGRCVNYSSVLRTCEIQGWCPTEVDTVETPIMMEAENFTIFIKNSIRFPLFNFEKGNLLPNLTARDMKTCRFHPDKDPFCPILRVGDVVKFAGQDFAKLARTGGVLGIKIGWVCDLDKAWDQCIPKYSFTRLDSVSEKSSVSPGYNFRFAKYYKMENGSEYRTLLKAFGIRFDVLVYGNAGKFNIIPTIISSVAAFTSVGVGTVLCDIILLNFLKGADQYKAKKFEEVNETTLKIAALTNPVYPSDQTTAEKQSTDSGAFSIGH
T1 sequence (Q9UBL9 1-471): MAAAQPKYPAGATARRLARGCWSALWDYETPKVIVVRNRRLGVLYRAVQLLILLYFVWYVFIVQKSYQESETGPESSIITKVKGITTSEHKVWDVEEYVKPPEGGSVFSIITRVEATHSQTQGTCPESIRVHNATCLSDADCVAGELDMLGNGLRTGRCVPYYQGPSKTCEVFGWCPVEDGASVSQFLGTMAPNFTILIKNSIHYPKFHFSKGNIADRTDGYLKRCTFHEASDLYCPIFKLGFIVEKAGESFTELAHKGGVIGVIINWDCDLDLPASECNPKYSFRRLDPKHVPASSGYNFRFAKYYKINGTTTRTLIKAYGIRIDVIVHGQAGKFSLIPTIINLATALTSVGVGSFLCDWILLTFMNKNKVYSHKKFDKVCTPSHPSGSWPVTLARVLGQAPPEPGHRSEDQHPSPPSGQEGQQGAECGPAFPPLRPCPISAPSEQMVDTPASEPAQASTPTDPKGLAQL
Description: Calcium fluorescence measurement: human P2X2/3 receptor activity inhibition (CHO-K1 cells, Fluo-8 NoWash, […]). The series is classed as cell-based. The settings on record: for IC50: CHO-K1 cells expressing human P2RX2/X3 channel, 10µM α,β-Met-ATP, read-out: h-P2X2/3 IC50; for Selectivity: ratio of IC50 of P2X2/3/ P2X3 receptors. As for the experimental part:
Determination of human P2X2/3 receptor activity inhibition
The assay for the human P2RX2/X3 has been evaluated by the screening instrumentation using the […] as reader and the FLUO8-NoWash dye as fluorescent readout for calcium detection.
CHO-K1 cells recombinantly expressing the human P2RX2/X3 channel are maintained in DMEM F-12 (1:1) mixture (LONZA cat. n°: BE04-687F/U1) supplemented with 5 mL of 100 mM Sodium Pyruvate (LONZA cat. n° BE13-115E), 25 mL of 7.5% Sodium Bicarbonate (LONZA cat. n° BE17-613E), 6.5 mL of 1M Hepes (LONZA cat. n° BE17-737E), 5 mL of 100X Penicillin/Streptomycin mixture (LONZA cat. n° DE17-602E) and 50 mL of Fetal Bovine Serum (Sigma cat. n° F7524), 5 µg/mL Puromycin dihydrochloride (Sigma cat. n° P9620) and 1 mg/ml G418 disulfate salt (Sigma cat. n° G8168).
Cells were seeded into black-walled clear bottom 384 Multiwell plates at a density of 10.000 cells/well in complete medium. After 24 h the culture medium was replaced with 20 µL/well of Fluo-8 NoWash calcium sensitive dye (AAT Bioquest cat. n° 36316) diluted in Tyrode's buffer (Standard Tyrode's buffer: in house solution, 130 mM NaCl, 5 mM KCl, 2 mM CaCl2, 5 mM NaHCO3, 1 mM MgCl2, 20 mM HEPES, pH 7.4).
The plates were incubated for 1 hours at 37°C and injected with 10 µL/well of test compounds at 3X concentration in Tyrode's buffer with the […]. After 5 minutes a second injection of 15 µL/well of 10µM α,β-Met-ATP in Tyrode's buffer (α,β-Met-ATP: from Tocris cat. n° 3209) was performed and the signal of the emitted fluorescence was recorded by […] (Molecular Devices).
The selectivity is expressed as the ratio of IC50 of P2X2/3/ P2X3 receptors. Table 8: Human P2X3 and h-P2X2/3 receptor antagonist activity for selected compounds of the invention.

Another series addresses T2, human P2X3 receptor (Homo sapiens, UniProt P56373).
T2 construct: expressed in transfected cells; host or cells: CHO-K1
T2 sequence (P56373 1-397): T1 sequence (P56373 1-397)
Briefly: Calcium luminescence measurement: human P2X3 receptor activity inhibition (CHO-K1 cells, photoprotein readout, FLEXSTATION). It counts as cell-based. The settings on record: CHO-K1 cells co-expressing human P2X3 and Ca2+ sensitive photoprotein; agonist α,β-Met-ATP; read-out: h-P2X3 IC50.

A further series concerns Sprague-Dawley Rats. Briefly: Two bottle taste test in rats: dysgeusia effect of P2X3 antagonists. It counts as in vivo. The settings on record: rats water fasted overnight; bottles presented 30 minutes after treatment for 15 minutes (Fig. 4). As to the method: as §1
(Fig 3) "Two bottle taste test" in rats - Dysgeusia effect of P2X3 antagonists
Rats were water fasted overnight. The day of the experiment the animals were treated with tested compounds and 30 minutes later two bottles were presented for 15 minutes, the first one containing water and the second bottle containing Quinine, a substance showing a bitter taste. The volume of liquid drunk in 15 minutes from each bottle was recorded and expressed as percentage of preference (Fig.4). Statistical analysis was performed on absolute values (mean ± SEM) using one-way ANOVA and Tukey's test for multiple comparisons.

The structures appear in SMILES notation.

For `CC(=O)N1CCN(c2cnc3c(c2)n(Cc2ccc(Cl)cc2)c(=O)n2c(C(C)(C)C)nnc32)CC1` [Example 34, 8-(4-Acetylpiperazin-1-yl)-3-tert-butyl-6-[(4-chlorophenyl)methyl]pyrido[2,3-e][1,2,4]triazolo[4,3-c]pyrimidin-5(6H)-one], in the series on C57BL/6J mice, the “ED35” value is 12.42 mg/kg. At human P2X2/3 receptor, the IC50 is more than 30000 nM and the Selectivity is more than 697. Besides, at human P2X3 receptor, the IC50 came out at 43 nM.
For `CC(C)(C)c1nnc2c3nnc(N4CCOCC4)cc3n(Cc3ccc(Cl)cc3)c(=O)n12` [Example 44, 3-tert-Butyl-6-[(4-chlorophenyl)methyl]-8-(morpholin-4-yl)[1,2,4]triazolo[4',3': 1,6]pyrimido[5,4-c]pyridazin-5(6H)-one] the same measures were 9.06 mg/kg, 3900 nM, 582 and 6.73 nM.
For `COc1cc(C(C)C)c(Oc2cnc(N)nc2N)cc1S(N)(=O)=O` [Gefapixant, reference compound], in the series with Sprague-Dawley Rats, the “preference between water and Quinine” value was “showed altered taste function and poor preference between water and Quinine bottles”.
Take `CC(C)C1C(=O)N=C2c3nnc(N4CCOCC4)cc3N(Cc3ccc(Cl)cc3)C(=O)N21` (stereo not shown) [Example 28, 5-[(4-Chlorophenyl)methyl]-3-(morpholin-4-yl)-8-(propan-2-yl)imidazo[1',2':1,6]pyrimido[5,4-c]pyridazine-6,9(5H,8H)-dione]: the “ED35” value in the series with C57BL/6J mice was found to be 22.54 mg/kg. Besides, at human P2X2/3 receptor, the IC50 was more than 30000 nM and the Selectivity is more than 1800. The IC50 on human P2X3 receptor came out at 16.6 nM.
